We go through three compounds from patent US5686428A, “Pharmaceutical composition” (priority 1994, dated 1997).

Each structure is given as a SMILES string. pEC50: −log10 of the molar value. “Also recorded” adds a separate entry of the source. Where two headings read alike, the source gives them in different places.

Data set [1] has as its system HIV-1 (strain LAV-1). In words: HIV-1 replication in infected human PBM cells (RT activity of disrupted virions). It is filed as cell-based. As to conditions: for pEC50: read-out: EC50 (median effective concentration). An excerpt: Cells, virus strains, and cell culture assays. PBM cells from healthy HIV-1 and hepatitis B virus seronegative donors were isolated and propagated as described previously (35). HIV-1 (strain LAV-1) was obtained from the Centers for Disease Control, Atlanta, and propagated in PHA-stimulated human PBM cells as described previously (35). The details of the methods used for infection and assaying the anti-HIV-1 effect in infected human PBM cells have been reported (35).
RT activity assay with disrupted virions. Six ml supernatant from each culture was clarified from cells at 300× g for 10 minutes. Virus particles were then pelleted from 5 ml samples at 40,000 rpm for 30 minutes using a Beckman 70.1 Ti rotor and suspended in 200 μl of virus disrupting buffer [50 mM Tris-HCl pH 7.8, 800 mM NaCl, 20% glycerol, 0.5 mM phenylmethyl sulfonyl fluoride (PMSF), and 0.5% Triton X-100].
The RT assays were performed at 37° C. in 96-well microtiter plates using methods described previously (35, 38). The results were expressed as dpm/ml of the originally clarified supernatant.
(§1) Calculation of synergy. […] Briefly, the method involves plotting of dose-effect curves for each compound alone and in combinations. It is essential to use a fixed ratio of the agents in multiply diluted combinations in order to use the median-effect equation: fa /fu =(C/Cm)^m. In this equation, C is the concentration, fa and fu are the fractions of the system which are affected and unaffected, respectively, by concentration C. Cm is the concentration required for a 50% effect (analogous to IC50 to EC50 values), and m is a Hill-type coefficient signifying the sigmoidicity of the dose-effect curve. The slopes (m) of the dose-effect plots, obtained for the studied compounds, provided information as to whether the compounds are mutually exclusive (i.e. similar modes of action) or mutually non-exclusive (i.e. different modes of action). When the plots of both compounds and their combination were all parallel, the effects of the two compounds were mutually exclusive. The interaction between two compounds was determined by calculating the combination index (C.I.) with assumptions, where appropriate, of either mutually exclusive or non-exclusive interactions. When uncertainty existed as to whether the drugs acted in similar or independent manners, the determination of C.I.-values were calculated under each assumption and compared. Values of C.I.<1 indicated synergy, C.I.=1 indicated additive effects, and C.I.>1 indicated antagonism. A computer program obtained from Elsevier-Biosoft, Cambridge, U.K. was used for automatic analysis of all dose-effect data. Additional details on using this method have been reported previously (33).

In data set [2] the test system is HCMV strain Ad169. Description: HCMV plaque reduction assay in HEL cells. In kind it is cell-based, human cytomegalovirus. As to conditions: for pEC50: Human betaherpesvirus 5, AD169, HEL, CMV infected cells. As to the method: HCMV strain Ad169 was a gift from Dr. Fred Rapp, Hersey, Pa. Human embryonic lung (HEL) cells, obtained from the American Type Culture Collection, Rockville, Md., were cultured in Dulbecco modified Eagle medium as decribed previously (39). Viable cells were conducted microscopically using a hemacytometer and the trypan blue exclusion method. Plaque reduction assays were performed in confluent monolayers of HEL cells in 6-well plates (Costar, Cambridge, Mass.) with 100 to 200 pfu of HCMV Ad169. After an adsorption period of 1 hour, unadsorbed virus was removed and the monolayers were overlaid with Dulbecco modified Eagle medium containing 0.75% SeaPlaque agarose (FMC BioProducts, Rockland, Me.), 2% heat inactivated fetal calf serum, and the appropriate concentration of drug. The plates were incubated at 37° C. in a humidified atmosphere containing 5% CO2 for 10 to 12 days. The monolayers were then fixed with 10% buffered Formalin (Fisher Scientific Co, Fair Lawn, N.J.), stained with crystal violet, and the number of plaques were counted.
as §1
In general terms: Plaques are areas of infected cells; plaque reduction assays count them against a control.

Data set [3] concerns uninfected PHA-stimulated human PBM cells. Description: Cell proliferation / toxicity in uninfected PBM cells (trypan blue exclusion). In kind it is cell-based. The procedure:
Cell proliferation. The drugs alone and in combination were evaluated for their potential toxic effects on uninfected PHA-stimulated human PBM cells. Flasks were seeded so that the final cell concentration was 3×10^5 cells ml. The cells were cultured with and without drug for 6 days at which time aliquots were counted for cell viability by using the trypan blue exclusion method.

Data set [4] addresses T1, HIV-1 reverse transcriptase (Human immunodeficiency virus type 1 group M subtype B, UniProt P04585).
T1 construct: HIV-1 reverse transcriptase was isolated from detergent disrupted virions; endogenous in cells; host or cells: virions from cell-free supernatant of HIV-1 infected PHA-stimulated human PBM cells, ion-exchange chromatography
Description: RT activity assay with partially purified enzyme. It is filed as biochemical. As to the method: RT activity assay with partially purified enzyme. HIV-1 reverse transcriptase was isolated from detergent disrupted virions obtained from the cell-free supernantant of infected PHA-stimulated PBM cells. The enzyme was purified by passing the extract through ion-exchange chromatography columns as described previously (12). The enzyme was characterized as HIV-1 RT based on its specific requirements according to previous description (1, 18). The standard reaction mixture (100 μl) contained 100 mM Tris-HCl (pH 8.0), 50 mM KCl, 2 mM MgCl2. 5 mM dithiothreitol 400 μg/ml bovine serum albumin, 0.05 U/ml (3.1 μg/ml) of (rA)n (dT)12-18, 1 μM [^3 H] dTTP (spec. act. 18,000 cpm/pmol) and 10 μl of HIV-1 Rt. The reactions were incubated and processed as previously described (7).
as §1

Data set [5] has as its target T2, HCMV DNA polymerase (Human cytomegalovirus, UniProt P08546).
T2 construct: gift from Dr. B. Wahren, National Bacteriological Laboratory, Stockholm
In words: CMV DNA polymerase assay. It is filed as biochemical.
Excerpt: CMV DNA Polymerase Assay. The partially purified HCMV-specific DNA polymerase was a generous gift from Dr. B. Wahren, National Bacteriological Laboratory, Stockholm. The procedure for the purification of HCMV DNA polymerase by sequential chromatographic steps on DEAE-cellulose (Whatman DE-52) and phosphocellulose (Whatman P-11) and the measurement of enzyme activity have been described previously (5).
as §1

Data set [6] relates to HIV-1. The note with it: patients, after a 14-day treatment; cited from earlier work.
Where [7] appears, read: Human immunodeficiency virus 1, PBMC.

T2 sequence (P08546 whole entry): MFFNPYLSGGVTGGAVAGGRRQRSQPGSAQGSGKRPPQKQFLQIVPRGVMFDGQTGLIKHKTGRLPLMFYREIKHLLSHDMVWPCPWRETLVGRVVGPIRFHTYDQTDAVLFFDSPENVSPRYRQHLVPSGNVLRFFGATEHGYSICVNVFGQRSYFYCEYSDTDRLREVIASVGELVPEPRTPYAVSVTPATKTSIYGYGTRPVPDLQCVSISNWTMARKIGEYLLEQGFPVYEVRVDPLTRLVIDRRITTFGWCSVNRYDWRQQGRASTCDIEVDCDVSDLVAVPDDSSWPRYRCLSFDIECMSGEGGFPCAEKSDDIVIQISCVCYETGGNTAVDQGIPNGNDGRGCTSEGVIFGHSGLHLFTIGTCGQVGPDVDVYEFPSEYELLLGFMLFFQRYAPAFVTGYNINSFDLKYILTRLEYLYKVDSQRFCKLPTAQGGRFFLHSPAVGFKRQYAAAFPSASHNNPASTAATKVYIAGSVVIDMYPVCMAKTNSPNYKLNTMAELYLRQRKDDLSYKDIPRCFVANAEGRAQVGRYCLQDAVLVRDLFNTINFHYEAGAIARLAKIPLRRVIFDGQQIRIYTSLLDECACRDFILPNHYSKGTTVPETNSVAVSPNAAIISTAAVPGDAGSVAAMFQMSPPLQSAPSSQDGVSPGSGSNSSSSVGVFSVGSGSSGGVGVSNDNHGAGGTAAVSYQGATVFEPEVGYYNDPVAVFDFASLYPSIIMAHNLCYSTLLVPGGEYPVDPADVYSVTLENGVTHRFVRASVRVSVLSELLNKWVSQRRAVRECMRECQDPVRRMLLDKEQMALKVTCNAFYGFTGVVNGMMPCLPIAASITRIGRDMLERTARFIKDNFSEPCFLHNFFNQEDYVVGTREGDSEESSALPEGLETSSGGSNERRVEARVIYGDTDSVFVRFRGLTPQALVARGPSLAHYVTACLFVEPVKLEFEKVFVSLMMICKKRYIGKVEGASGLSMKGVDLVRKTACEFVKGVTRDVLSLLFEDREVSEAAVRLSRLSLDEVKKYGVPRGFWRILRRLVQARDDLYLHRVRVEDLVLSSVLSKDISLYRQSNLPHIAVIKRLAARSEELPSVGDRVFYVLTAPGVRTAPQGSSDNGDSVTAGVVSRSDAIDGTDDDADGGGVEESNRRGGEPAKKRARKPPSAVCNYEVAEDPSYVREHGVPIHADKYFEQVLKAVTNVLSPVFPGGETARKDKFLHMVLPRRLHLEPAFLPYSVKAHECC

What is called inhibition is the drop in the measured response relative to a control, in per cent. Consider `Cc1cn([C@H]2C[C@H](N=[N+]=[N-])[C@@H](CO)O2)c(=O)[nH]c1=O` [AZT, 3'-azido-3'-deoxythymidine], for which the RT activity is 750 kdpm/ml in data set [1] (AZT 0.002 μM), 584 kdpm/ml in data set [1] (AZT 0.004 μM), 343 kdpm/ml in data set [1] (AZT 0.008 μM) and 35.9 kdpm/ml in data set [1] (AZT 0.016 μM). The inhibition at 0.002 µM in data set [1] (setting [7]) was 3%. The inhibition at 0.004 µM in data set [1] (setting [7]) amounted to 24.5%. In addition, the inhibition at 0.008 µM in data set [1] (setting [7]) was 55.7%. Further, the inhibition at 0.016 µM in data set [1] (setting [7]) was 95.5%. Further, the pEC50 in data set [1] (setting [7]) is 8.22; in data set [2] (extrapolated in order to calculate C.I.-values, read-out: EC50 (extrapolated)), 3.42. In addition, the “inhibitory effect on multiplication of HCMV Ad169 in HEL fibroblasts” value in data set [2] (concentrations up to 200 μM) is recorded as “virtually without inhibitory effect”. Further, the “effect against HCMV replication in cell culture” value in data set [2] (human embryonic lung fibroblasts) is listed as “no inhibitory effect; also recorded: neither inhibited the replication”.
As to `O=C(O)P(=O)(O)O` [PFA, phosphonoformic acid], the inhibition at 8 µM in data set [1] (setting [7]) worked out at 9.1%. Also, in data set [1] (setting [7]), the inhibition at 16 µM was determined as 41.1%. Further, the inhibition at 32 µM in data set [1] (setting [7]) is 75.5%. Also, the inhibition at 64 µM in data set [1] (setting [7]) was 88.1%. Moreover, the inhibition at 128 µM in data set [1] (setting [7]) came to 95.5%. The pEC50 in data set [1] (setting [7]) was 4.66; in data set [4], 6.85; in data set [2] (plaque formation, read-out: EC50 (median effective concentration)), 4.47; in data set [5] (CMV DNA polymerase, read-out: EC50 (median effective concentration)), 6.11. For the same compound, the RT activity in data set [1] (PFA 8 μM) is on record as 703 kdpm/ml; in data set [1] (PFA 16 μM) it was 455 kdpm/ml; in data set [1] (PFA 32 μM), 190 kdpm/ml; in data set [1] (PFA 64 μM), 93.1 kdpm/ml; in data set [1] (PFA 128 μM), 35.9 kdpm/ml. In addition, the “toxicity to PBM cells” value in data set [3] was “not toxic”. Also, the “m ± SE (slope of median effect plot)” value in data set [4] (HIV-1 reverse transcriptase) turned out to be 0.91±0.03; in data set [5] (CMV DNA polymerase) it was 0.79 ± 0.02. The “EC50 times lower than that of AZT-TP” value in data set [5] is given as “more than 30 times”. The “HIV-1 p24 antigen concentrations” value in data set [6] was “significant reduction”.
Turning to `Cc1cn([C@H]2C[C@H](N=[N+]=[N-])[C@@H](COP(=O)(O)OP(=O)(O)OP(=O)(O)O)O2)c(=O)[nH]c1=O` [AZT-TP, 3'-azido-3'-deoxythymidine-5'-triphosphate], the entries for the “m ± SE (slope of median effect plot)” value in data set [4] (HIV-1 reverse transcriptase) and in data set [5] (CMV DNA polymerase) were 0.87±0.03 and 0.88 ± 0.09, respectively. Moreover, the pEC50 in data set [4] (HIV-1 reverse transcriptase, read-out: EC50 (median effective concentration)) is 8.52.
